Reference: the kinase profiling compilation of Christmann-Franck et al. (2016)

Key:
Assay in all cases: KINOMEscan competition binding
Conditions in all cases: compound 1.0 µM
[1] = target: CDC2L2 (human) (UniProt Q9UQ88)
[2] = target: SLK (human) (UniProt Q9H2G2)
[3] = target: TYRO3 (human) (UniProt Q06418)
[4] = target: PRPF4B (human) (UniProt Q13523)
[5] = target: CDK8 (human) (UniProt P49336)
[6] = target: DCLK3 (human) (UniProt Q9C098)
[7] = target: ABL2 (human) (UniProt P42684)
[8] = target: MAPK3 (human) (UniProt P27361)
[9] = target: TSSK1B (human) (UniProt Q9BXA7)
[10] = target: CDK11B (human) (UniProt P21127)
[11] = test system: FLT3 (human), P36888 [D835H]
[12] = target: EPHA8 (human) (UniProt P29322)
[13] = test system: EIF2AK4 KD2 (human), Q9P2K8 [S808G]
[14] = target: MYO3A (human) (UniProt Q8NEV4)
[15] = target: SRMS (human) (UniProt Q9H3Y6)
[16] = target: MAP3K12 (human) (UniProt Q12852)
[17] = target: PTK2 (human) (UniProt Q05397)
[18] = target: RPS6KA6 KD1 (human) (UniProt Q9UK32)
[19] = target: BRAF (human) (UniProt P15056)
[20] = target: MAPK14 (human) (UniProt Q16539)
[21] = target: PHKG2 (human) (UniProt P15735)
[22] = target: MAP3K2 (human) (UniProt Q9Y2U5)
[23] = target: MAP3K9 (human) (UniProt P80192)
[24] = target: RET (human) (UniProt P07949)
[25] = target: SIK2 (human) (UniProt Q9H0K1)
[26] = target: MAK (human) (UniProt P20794)
[27] = test system: EGFR (human), P00533 [747-751 del / S ins]
[28] = target: DAPK1 (human) (UniProt P53355)
[29] = target: MAP3K10 (human) (UniProt Q02779)
[30] = target: RPS6KA6 KD2 (human) (UniProt Q9UK32)
[31] = target: RIPK4 (human) (UniProt P57078)
[32] = target: STK11 (human) (UniProt Q15831)
[33] = target: CAMK2G (human) (UniProt Q13555)
[34] = test system: ABL1 (human), P00519 [F317L]
[35] = target: NTRK1 (human) (UniProt P04629)
[36] = target: FLT4 (human) (UniProt P35916)
[37] = target: ITK (human) (UniProt Q08881)
[38] = target: FRK (human) (UniProt P42685)
[39] = test system: KIT (human), P10721 [V559D/T670I]
[40] = target: DAPK2 (human) (UniProt Q9UIK4)

Sequence of MAPK3 (human) (P27361 whole entry, looked up): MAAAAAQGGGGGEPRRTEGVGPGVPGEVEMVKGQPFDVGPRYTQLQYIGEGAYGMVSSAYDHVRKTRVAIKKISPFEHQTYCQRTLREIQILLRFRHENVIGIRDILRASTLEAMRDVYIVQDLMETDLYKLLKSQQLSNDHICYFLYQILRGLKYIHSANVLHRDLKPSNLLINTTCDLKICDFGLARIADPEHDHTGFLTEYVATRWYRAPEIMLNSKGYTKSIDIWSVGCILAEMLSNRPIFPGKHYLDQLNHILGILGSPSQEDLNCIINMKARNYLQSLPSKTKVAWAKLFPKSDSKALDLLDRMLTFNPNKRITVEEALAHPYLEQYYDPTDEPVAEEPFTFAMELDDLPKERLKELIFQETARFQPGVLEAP
Sequence of KIT (human), P10721 [V559D/T670I] (P10721 whole entry V559D/T670I, looked up): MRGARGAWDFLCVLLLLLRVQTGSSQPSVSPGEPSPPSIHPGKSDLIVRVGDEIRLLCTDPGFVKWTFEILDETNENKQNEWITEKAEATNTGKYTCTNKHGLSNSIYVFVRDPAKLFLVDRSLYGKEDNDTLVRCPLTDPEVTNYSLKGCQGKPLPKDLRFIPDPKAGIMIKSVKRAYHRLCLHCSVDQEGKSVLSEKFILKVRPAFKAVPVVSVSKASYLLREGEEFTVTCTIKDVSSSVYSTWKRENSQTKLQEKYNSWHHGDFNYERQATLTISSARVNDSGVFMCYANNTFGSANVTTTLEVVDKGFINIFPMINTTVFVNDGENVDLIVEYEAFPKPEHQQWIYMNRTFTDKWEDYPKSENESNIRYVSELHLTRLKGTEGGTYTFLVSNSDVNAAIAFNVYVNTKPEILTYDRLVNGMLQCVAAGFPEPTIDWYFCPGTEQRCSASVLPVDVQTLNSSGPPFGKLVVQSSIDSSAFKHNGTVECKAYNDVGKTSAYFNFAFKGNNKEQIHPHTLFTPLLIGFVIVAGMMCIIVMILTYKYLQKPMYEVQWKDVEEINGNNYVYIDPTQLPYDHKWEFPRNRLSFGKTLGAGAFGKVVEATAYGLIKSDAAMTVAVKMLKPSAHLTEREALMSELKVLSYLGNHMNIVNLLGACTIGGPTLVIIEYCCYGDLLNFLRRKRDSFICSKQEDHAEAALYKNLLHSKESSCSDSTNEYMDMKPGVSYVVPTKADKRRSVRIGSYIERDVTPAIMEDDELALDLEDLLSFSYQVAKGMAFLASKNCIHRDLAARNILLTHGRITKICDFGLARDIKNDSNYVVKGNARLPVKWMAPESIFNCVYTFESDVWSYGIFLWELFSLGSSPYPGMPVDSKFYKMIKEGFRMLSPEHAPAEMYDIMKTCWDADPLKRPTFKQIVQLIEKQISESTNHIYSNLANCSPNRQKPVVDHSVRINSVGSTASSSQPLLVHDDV
Sequence of CAMK2G (human) (Q13555 whole entry, looked up): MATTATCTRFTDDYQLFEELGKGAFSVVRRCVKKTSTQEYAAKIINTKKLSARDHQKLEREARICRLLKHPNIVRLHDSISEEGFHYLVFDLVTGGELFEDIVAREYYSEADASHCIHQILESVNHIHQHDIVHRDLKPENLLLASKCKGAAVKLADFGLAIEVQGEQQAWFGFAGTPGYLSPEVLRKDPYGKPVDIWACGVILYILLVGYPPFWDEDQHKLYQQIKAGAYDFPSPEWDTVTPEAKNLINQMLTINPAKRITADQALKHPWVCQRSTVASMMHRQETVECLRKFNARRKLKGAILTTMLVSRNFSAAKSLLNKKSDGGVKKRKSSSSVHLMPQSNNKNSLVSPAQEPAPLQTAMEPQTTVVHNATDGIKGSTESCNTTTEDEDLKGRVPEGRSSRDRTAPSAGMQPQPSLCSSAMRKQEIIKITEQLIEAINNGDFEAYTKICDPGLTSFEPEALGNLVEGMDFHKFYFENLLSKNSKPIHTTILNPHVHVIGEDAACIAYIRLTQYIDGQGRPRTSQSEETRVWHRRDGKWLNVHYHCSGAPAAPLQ
Sequence of CDK11B (human) (P21127 whole entry, looked up): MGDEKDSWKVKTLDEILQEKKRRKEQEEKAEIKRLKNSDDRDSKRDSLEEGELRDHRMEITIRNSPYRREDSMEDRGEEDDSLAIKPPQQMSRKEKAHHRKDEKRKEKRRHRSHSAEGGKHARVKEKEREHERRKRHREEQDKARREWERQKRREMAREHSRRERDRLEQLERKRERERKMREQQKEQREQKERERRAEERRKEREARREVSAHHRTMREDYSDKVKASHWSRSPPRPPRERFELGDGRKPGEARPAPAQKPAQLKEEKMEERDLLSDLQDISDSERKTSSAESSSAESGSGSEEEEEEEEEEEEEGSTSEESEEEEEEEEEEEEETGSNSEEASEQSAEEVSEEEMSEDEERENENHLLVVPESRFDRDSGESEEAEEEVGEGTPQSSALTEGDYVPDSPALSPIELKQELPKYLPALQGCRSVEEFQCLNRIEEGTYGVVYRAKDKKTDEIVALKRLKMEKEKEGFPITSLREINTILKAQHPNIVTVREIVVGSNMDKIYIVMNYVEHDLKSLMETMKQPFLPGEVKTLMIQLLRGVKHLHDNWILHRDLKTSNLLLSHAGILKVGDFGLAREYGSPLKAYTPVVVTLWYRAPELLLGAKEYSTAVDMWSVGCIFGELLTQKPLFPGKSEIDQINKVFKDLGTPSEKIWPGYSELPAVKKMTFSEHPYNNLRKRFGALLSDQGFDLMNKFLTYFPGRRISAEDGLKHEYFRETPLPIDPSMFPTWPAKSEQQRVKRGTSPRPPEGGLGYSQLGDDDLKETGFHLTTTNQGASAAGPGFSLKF
Sequence of BRAF (human) (P15056 whole entry, looked up): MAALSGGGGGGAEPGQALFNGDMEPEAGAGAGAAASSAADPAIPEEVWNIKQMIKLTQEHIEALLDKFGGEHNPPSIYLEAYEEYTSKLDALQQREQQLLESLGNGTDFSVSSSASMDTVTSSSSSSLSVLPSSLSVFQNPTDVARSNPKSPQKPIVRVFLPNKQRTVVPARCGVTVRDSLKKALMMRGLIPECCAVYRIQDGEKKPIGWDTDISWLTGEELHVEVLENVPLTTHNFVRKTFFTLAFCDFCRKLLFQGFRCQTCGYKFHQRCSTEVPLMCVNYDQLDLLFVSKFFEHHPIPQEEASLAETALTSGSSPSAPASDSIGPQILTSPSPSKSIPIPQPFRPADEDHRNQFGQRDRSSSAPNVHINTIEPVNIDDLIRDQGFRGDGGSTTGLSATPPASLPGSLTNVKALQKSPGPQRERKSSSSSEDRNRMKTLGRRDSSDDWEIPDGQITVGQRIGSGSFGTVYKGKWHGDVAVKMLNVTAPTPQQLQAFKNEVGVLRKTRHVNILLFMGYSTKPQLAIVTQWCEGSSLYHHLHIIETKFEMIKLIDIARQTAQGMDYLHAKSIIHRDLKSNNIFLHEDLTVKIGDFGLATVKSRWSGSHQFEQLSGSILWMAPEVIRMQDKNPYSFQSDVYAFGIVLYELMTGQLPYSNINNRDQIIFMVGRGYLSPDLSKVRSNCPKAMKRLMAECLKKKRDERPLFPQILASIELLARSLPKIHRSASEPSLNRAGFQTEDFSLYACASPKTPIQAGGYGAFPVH
Sequence of PHKG2 (human) (P15735 whole entry, looked up): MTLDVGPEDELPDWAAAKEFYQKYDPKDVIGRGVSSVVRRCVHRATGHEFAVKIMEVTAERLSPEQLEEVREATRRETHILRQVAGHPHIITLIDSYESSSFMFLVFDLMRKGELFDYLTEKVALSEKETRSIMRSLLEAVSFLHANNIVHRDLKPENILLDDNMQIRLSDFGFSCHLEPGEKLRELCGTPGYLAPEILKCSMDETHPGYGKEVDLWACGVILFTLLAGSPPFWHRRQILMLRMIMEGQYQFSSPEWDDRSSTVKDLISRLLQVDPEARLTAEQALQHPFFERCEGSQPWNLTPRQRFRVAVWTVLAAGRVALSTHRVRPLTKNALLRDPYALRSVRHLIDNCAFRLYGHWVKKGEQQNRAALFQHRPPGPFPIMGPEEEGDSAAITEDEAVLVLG
Sequence of ITK (human) (Q08881 whole entry, looked up): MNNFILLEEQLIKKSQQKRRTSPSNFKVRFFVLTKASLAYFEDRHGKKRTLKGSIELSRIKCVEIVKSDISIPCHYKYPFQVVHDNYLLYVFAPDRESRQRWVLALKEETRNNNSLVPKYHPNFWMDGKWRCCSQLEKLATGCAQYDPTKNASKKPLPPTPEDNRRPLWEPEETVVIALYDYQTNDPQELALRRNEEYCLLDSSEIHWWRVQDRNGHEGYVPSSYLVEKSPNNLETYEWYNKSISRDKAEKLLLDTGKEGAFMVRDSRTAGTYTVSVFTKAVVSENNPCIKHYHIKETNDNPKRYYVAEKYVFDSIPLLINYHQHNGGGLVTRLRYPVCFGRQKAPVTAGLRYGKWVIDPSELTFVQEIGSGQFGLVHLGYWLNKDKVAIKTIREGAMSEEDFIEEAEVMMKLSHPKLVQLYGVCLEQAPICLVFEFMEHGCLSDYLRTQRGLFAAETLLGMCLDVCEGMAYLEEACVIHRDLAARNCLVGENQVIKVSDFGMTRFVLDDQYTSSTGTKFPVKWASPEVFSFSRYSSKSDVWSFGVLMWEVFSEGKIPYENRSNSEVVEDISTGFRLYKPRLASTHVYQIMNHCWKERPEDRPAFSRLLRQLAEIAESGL
Sequence of CDK8 (human) (P49336 whole entry, looked up): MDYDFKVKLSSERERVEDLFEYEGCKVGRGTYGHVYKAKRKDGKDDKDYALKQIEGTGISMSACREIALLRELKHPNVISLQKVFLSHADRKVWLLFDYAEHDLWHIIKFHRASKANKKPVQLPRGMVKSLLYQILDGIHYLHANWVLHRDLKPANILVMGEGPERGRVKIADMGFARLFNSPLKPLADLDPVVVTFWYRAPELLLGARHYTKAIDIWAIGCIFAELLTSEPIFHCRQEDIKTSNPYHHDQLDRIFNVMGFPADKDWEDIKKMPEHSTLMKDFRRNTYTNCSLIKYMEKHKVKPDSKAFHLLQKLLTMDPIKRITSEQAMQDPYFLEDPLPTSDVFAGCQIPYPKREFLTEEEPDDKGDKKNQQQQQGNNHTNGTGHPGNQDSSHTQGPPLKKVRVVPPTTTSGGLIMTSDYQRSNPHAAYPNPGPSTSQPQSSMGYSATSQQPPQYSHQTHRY

inhibition of binding [1]: 19%
inhibition of binding [2]: 0%
inhibition of binding [3]: 0%
inhibition of binding [4]: 4%
inhibition of binding [5]: 0%
inhibition of binding [6]: 51%
inhibition of binding [7]: 0%
inhibition of binding [8]: 1%
inhibition of binding [9]: 5%
inhibition of binding [10]: 10%
inhibition of binding [11]: 2%
inhibition of binding [12]: 0%
inhibition of binding [13]: 35%
inhibition of binding [14]: 7%
inhibition of binding [15]: 0%
inhibition of binding [16]: 0%
inhibition of binding [17]: 21%
inhibition of binding [18]: 0%
inhibition of binding [19]: 18%
inhibition of binding [20]: 0%
inhibition of binding [21]: 11%
inhibition of binding [22]: 0%
inhibition of binding [23]: 18%
inhibition of binding [24]: 8%
inhibition of binding [25]: 0%
inhibition of binding [26]: 0%
inhibition of binding [27]: 4%
inhibition of binding [28]: 2%
inhibition of binding [29]: 0%
inhibition of binding [30]: 18%
inhibition of binding [31]: 0%
inhibition of binding [32]: 0%
inhibition of binding [33]: 0%
inhibition of binding [34]: 0%
inhibition of binding [35]: 4%
inhibition of binding [36]: 3%
inhibition of binding [37]: 0%
inhibition of binding [38]: 0%
inhibition of binding [39]: 0%
inhibition of binding [40]: 13%
SMILES: Nc1cc(C(F)(F)F)c(-c2cc(N3CCOCC3)nc(N3CCOCC3)n2)cn1
